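48-hour exposure; five concentrations; linearly interpolated endpoints. At the GI50, growth is halved.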 Active and inactive are the calls of the source. Rule as the data show it: active = GI50 up to about 1.1 µM and inactive = higher.
How the values were obtained:
Assay in all cases: NCI tumour cell line growth inhibition, 48 h
DU-145 = tested on: DU-145
HCT-116 = tested on: HCT-116
HOP-62 = tested on: HOP-62
HT-29 = tested on: HT-29
K562 = tested on: K562
KM12 = tested on: KM12
LOX IMVI = tested on: LOX IMVI
M14 = tested on: M14
MDA-MB-231 = tested on: MDA-MB-231
NCI-H226 = tested on: NCI-H226
OVCAR-4 = tested on: OVCAR-4
OVCAR-8 = tested on: OVCAR-8
SF-295 = tested on: SF-295
SK-MEL-28 = tested on: SK-MEL-28
SK-OV-3 = tested on: SK-OV-3
SN12C = tested on: SN12C
T47D = tested on: T47D
TK-10 = tested on: TK-10
UACC-257 = tested on: UACC-257

Measured: GI50

NN/C(=N\S(=O)(=O)c1cc(S(=O)(=O)c2ccccc2)cs1)Nc1ccc(Cl)cc1
inactive: DU-145 26.1 µM | HCT-116 20.9 µM | HOP-62 38.4 µM | HT-29 36.1 µM | K562 18.7 µM | KM12 26.1 µM | LOX IMVI 21.2 µM | M14 22 µM | MDA-MB-231 27.4 µM | NCI-H226 33.1 µM | OVCAR-4 20 µM | OVCAR-8 32.4 µM | SF-295 17.6 µM | SK-MEL-28 35.2 µM | SK-OV-3 43.7 µM | SN12C 28.4 µM | T47D 13.8 µM | TK-10 24.8 µM | UACC-257 19 µM

Cc1ccc(NC(=O)CCc2nnc3s/c(=C\c4cccc([N+](=O)[O-])c4)c(=O)n23)cc1
inactive: HCT-116 > 100 µM | HOP-62 16.7 µM | HT-29 > 100 µM | K562 > 100 µM | KM12 > 100 µM | LOX IMVI 48.8 µM | M14 > 100 µM | NCI-H226 > 100 µM | OVCAR-4 > 100 µM | OVCAR-8 > 100 µM | SF-295 59.2 µM | SK-MEL-28 > 100 µM | SK-OV-3 > 100 µM | SN12C > 100 µM | TK-10 > 100 µM | UACC-257 > 100 µM

COc1ccc(C2ON(c3ccccc3)CC=C2C)cc1 (stereo not given)
inactive: HCT-116 66.7 µM | HOP-62 > 100 µM | HT-29 34.4 µM | K562 60.5 µM | KM12 99.1 µM | LOX IMVI > 100 µM | M14 80.7 µM | NCI-H226 > 100 µM | OVCAR-4 34.5 µM | OVCAR-8 > 100 µM | SF-295 93.8 µM | SK-MEL-28 61.8 µM | SK-OV-3 > 100 µM | SN12C > 100 µM | TK-10 > 100 µM | UACC-257 42.5 µM

COc1cccc2c(Nc3ccc(S(=O)(=O)N=C(N)N)cc3)c3ccc([N+](=O)[O-])cc3nc12
inactive: DU-145 8.67 µM | HCT-116 16.6 µM | HOP-62 15.7 µM | HT-29 32.8 µM | K562 6 µM | KM12 3.99 µM | LOX IMVI 11.4 µM | M14 16.3 µM | MDA-MB-231 2.34 µM | NCI-H226 38.8 µM | OVCAR-4 37.7 µM | OVCAR-8 15.7 µM | SF-295 29.4 µM | SK-MEL-28 35.2 µM | SK-OV-3 28.6 µM | SN12C 30 µM | T47D 1.35 µM | TK-10 25.6 µM | UACC-257 17.4 µM

C/C(CC(=O)Nc1ccc(Cl)c(Cl)c1)=N/NC(=O)C[n+]1ccccc1
inactive: HCT-116 > 100 µM | HOP-62 > 100 µM | HT-29 > 100 µM | K562 45.8 µM | KM12 88.7 µM | LOX IMVI 18.8 µM | M14 > 100 µM | NCI-H226 > 100 µM | OVCAR-4 > 100 µM | OVCAR-8 > 100 µM | SF-295 > 100 µM | SK-MEL-28 > 100 µM | SK-OV-3 > 100 µM | SN12C > 100 µM | TK-10 > 100 µM | UACC-257 > 100 µM

Cc1ccc(-c2c(C#N)c(-c3ccc(Cl)cc3)c(C#N)c(=O)n2NS(=O)(=O)c2ccc(C)cc2)cc1
inactive: HCT-116 20.5 µM | HOP-62 19.5 µM | HT-29 37.2 µM | K562 33.9 µM | KM12 22.5 µM | LOX IMVI 21.6 µM | M14 19.5 µM | MDA-MB-231 38.5 µM | NCI-H226 39.8 µM | OVCAR-4 26.6 µM | OVCAR-8 26.2 µM | SF-295 24 µM | SK-MEL-28 30.3 µM | SK-OV-3 22.1 µM | SN12C 39.4 µM | TK-10 56.1 µM | UACC-257 74 µM

CC(=O)OC1COC(N2C(=O)C(=O)c3cc(Br)c([N+](=O)[O-])cc32)C(OC(C)=O)C1OC(C)=O (stereo not given)
inactive: HCT-116 77.3 µM | HOP-62 > 100 µM | HT-29 > 100 µM | K562 26.2 µM | KM12 > 100 µM | LOX IMVI 30.2 µM | M14 > 100 µM | NCI-H226 > 100 µM | OVCAR-4 42.6 µM | OVCAR-8 83.6 µM | SF-295 > 100 µM | SK-MEL-28 86.5 µM | SK-OV-3 96.8 µM | SN12C > 100 µM | TK-10 > 100 µM | UACC-257 > 100 µM

O=C1OC(c2ccccc2)C2CC3CC4(CCC3CN12)OCCO4 (stereo not given)
inactive: HCT-116 > 100 µM | HOP-62 > 100 µM | HT-29 > 100 µM | K562 45.9 µM | KM12 > 100 µM | LOX IMVI > 100 µM | M14 > 100 µM | NCI-H226 > 100 µM | OVCAR-4 88.5 µM | OVCAR-8 > 100 µM | SF-295 > 100 µM | SK-MEL-28 > 100 µM | SK-OV-3 > 100 µM | SN12C > 100 µM | TK-10 > 100 µM | UACC-257 > 100 µM

CCN(CC)c1ccc(/N=N/c2ccc([N+](=O)[O-])cc2OC(=O)/C=C/c2ccccc2)c(OC(=O)/C=C/c2ccccc2)c1
inactive: HCT-116 3.55 µM | HOP-62 2.12 µM | HT-29 > 100 µM | K562 > 68.9 µM | KM12 3.83 µM | LOX IMVI 4.74 µM | M14 12.7 µM | NCI-H226 1.44 µM | OVCAR-4 21 µM | OVCAR-8 6.27 µM | SF-295 4.6 µM | SK-MEL-28 7.03 µM | SK-OV-3 4.16 µM | SN12C 20.6 µM | TK-10 27.3 µM | UACC-257 2.23 µM

CC1=CC(=O)/C(=C/NC(=S)Nc2ccc(S(N)(=O)=O)cc2)C(=O)O1
inactive: DU-145 > 100 µM | HCT-116 > 100 µM | HOP-62 > 100 µM | HT-29 > 100 µM | KM12 > 100 µM | LOX IMVI > 100 µM | M14 > 100 µM | MDA-MB-231 > 100 µM | NCI-H226 > 100 µM | OVCAR-4 > 100 µM | OVCAR-8 > 100 µM | SF-295 > 100 µM | SK-MEL-28 > 100 µM | SK-OV-3 > 100 µM | SN12C > 100 µM | T47D > 100 µM | TK-10 > 100 µM | UACC-257 > 100 µM

COC(=O)N/N=C(/Cc1occc(=O)c1O)C(=O)Nc1ccc([N+](=O)[O-])cc1[N+](=O)[O-]
inactive: HCT-116 > 100 µM | HOP-62 > 100 µM | HT-29 > 100 µM | K562 > 100 µM | KM12 > 100 µM | LOX IMVI > 100 µM | M14 > 100 µM | NCI-H226 > 100 µM | OVCAR-4 > 100 µM | OVCAR-8 > 100 µM | SF-295 > 100 µM | SK-MEL-28 > 100 µM | SK-OV-3 > 100 µM | SN12C > 100 µM | TK-10 > 100 µM | UACC-257 > 100 µM
